Data published in patent US5654296A, “Condensed heterocyclic compounds, their production and use” (priority 1994, dated 1997).
Structures can show the parent of a compound that is named as a salt.

Tests used:
[1] = system: serotonine (5-HT) uptake; experiment: Activity to inhibit serotonine (5-HT) uptake; format: biochemical; conditions: rat whole brain; 3H-5-HT 10 nM; 37° C.; pH 7.4; read-out: 5-HT uptake inhibitory activity (IC50 μM)
Description: (a) Activity to inhibit serotonine (5-HT) uptake
(§1) The experiment was performed in accordance with the method of Hyttel et al. [Psychopharmacology 60, 13, 1978]. The whole brain of a rat was homogenized in 40 volumes of ice-cooled 0.32M sucrose solution containing 10 μM pargyline and, then, centrifuged (600×G) for 10 minutes. The supernatant was centrifuged (2500×G) for 55 minutes to provide a pellet. This pellet was suspended in Krebs-Ringer-phosphate buffer (pH 7.4; 122 mM NaCl, 4.82 mM KCl, 0.972 mM CaCl2, 1.21 mM MgSO4, 12.7 mM Na2 HPO4, 2.97 mM NaH2 PO4, 0.162 mM EDTA sodium, 10 mM glucose, 1.14 mM ascorbic acid) saturated with a mixed gas (95% O and 5% CO2). To 900 μl of this suspention was added a solution of the test drug (10 μl) in DMSO and the mixture was incubated at 37° C. for 5 minutes. Then, 100 μl of ^3 H-5-HT (final concentration 10 nM) was added and the mixture was further incubated at 37° C. for 5 minutes. This reaction mixture was filtered under suction using a GF/B filter and the filter was washed with 4 ml of the above-mentioned buffer. The radioactivity on the filter was measured by the liquid scintillation method.
The amount of the drug which caused a 50% decrease in 5-HT uptake is shown as 50% inhibitory activity (IC50) in Table 42.

[2] = system: norepinephrine (NE) uptake; experiment: Activity to inhibit norepinephrine (NE) uptake; format: biochemical; conditions: rat cerebral cortex; 3H-NE; read-out: NE uptake inhibitory activity (IC50 μM)
Description: as §1
(b) Activity to inhibit norepinephrine (NE) uptake
Using the rat cerebral cortex and, as the substrate, ^3 H-NE, an experiment was performed by otherwise the same procedure as described for 5-HT.

[3] = system: 45Ca2+ uptake (veratrine-stimulated, rat cerebral cortex crude synaptosome fraction); experiment: 45Ca2+ uptake inhibition experiment; format: biochemical; conditions: 30 μM veratrine, 37° C., 10 minutes, read-out: 45Ca2+ uptake inhibitory activity (IC50 μM)
Description: The rat cerebral cortex was homogenized in 10 volumes of ice-cooled 0.32M sucrose solution to prepare a crude synaptosome fraction (100×G, 10 min., 12000×G, 20 min.). […] To 900 μl of the homogenate was added a DMSO solution of the test drug (10 μl). The mixture was incubated at 37° C. for 10 minutes, followed by addition of 100 μl of a veratrine solution (containing 0.18 uci ^45 Ca^2+) at a final veratrine concentration of 30 μM. The mixture was incubated at 37° C. for 10 minutes, quenched with 4 ml of ice-cooled EGTA solution (120 mM sodium chloride, 5 mM potassium chloride, 5 mM EGTA, pH=7.5) and suction-filtered using a GF/B filter. The filter was washed twice with 4 ml each of a washing solution (132 mM sodium chloride, 5 mM potassium chloride, 1.3 mM magnesium chloride, 1.2 mM calcium, chloride, 20 mM Tris base, pH 7.5) and the radioactivity of […] was measured by the liquid scintillation method.
The ^45 Ca^2+ uptake inhibition rate was calculated by means of the following equation. [formula] A: The ^45 Ca^2+ uptake after 10 minutes' stimulation with 30 μM veratrine in the presence of the test drug
B: The ^45 Ca^2+ uptake in the absence of veratrine and in the presence of the test drug
C: The ^45 Ca^2+ uptake after 10 minutes' stimulation with 30 μM veratrine in the absence of the test drug
D: The ^45 Ca^2+ uptake in the absence of the test drug and in the absence of veratrine

[4] = target: T1, GnRH receptors (bovine pituitary anterior lobe membrane fraction) (Bos taurus, UniProt P32236); experiment: 125I-leuprolerin GnRH receptor binding inhibition test, bovine pituitary anterior lobe membrane fraction; conditions: 4° C., 90 minutes, read-out: Binding inhibitory activity (IC50 μM) Bovine
T1 construct: A bovine pituitary anterior lobe membrane fraction containing GnRH receptors was prepared; from tissue; host or cells: bovine pituitary anterior lobe, membrane fraction
T1 sequence (P32236 1-328): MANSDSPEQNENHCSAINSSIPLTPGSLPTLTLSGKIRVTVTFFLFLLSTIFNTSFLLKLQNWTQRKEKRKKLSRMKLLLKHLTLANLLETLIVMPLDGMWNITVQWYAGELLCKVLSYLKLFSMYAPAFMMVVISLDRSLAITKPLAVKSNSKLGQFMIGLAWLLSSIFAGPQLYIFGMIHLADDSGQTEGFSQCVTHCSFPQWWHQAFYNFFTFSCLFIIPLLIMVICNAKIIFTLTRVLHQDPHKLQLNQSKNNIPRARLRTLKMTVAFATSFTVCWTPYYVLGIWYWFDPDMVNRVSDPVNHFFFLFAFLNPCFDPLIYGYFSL
Description: Ten (10) μl of 3×10^4 M aqueous leuprolerin solution and 10 μl of 0.01 mg/ml lactoperoxidase were taken in a tube and 10 μl of Na^125 I solution (37 MBq) was added. After stirring, 10 μl of 0.001% H2 O2 was added and the reaction was conducted at room temperature for 20 minutes. Then, 700 μl of 0.05% TFA solution was added to the tube to terminate the reaction and the reaction mixture was purified by reverse-phase HPLC. The HPLC conditions are shown below. ^125 I-leuprolerin was eluted after a retention time of 26-27 minutes. (C) Preparation of a Bovine Pituitary Anterior Lobe Membrane Fraction Containing GnRH Receptors A bovine pituitary anterior lobe membrane fraction containing GnRH receptors was prepared by the same procedure as described under (B). However, a 10,000×G centrifugation supernatant was recentrifuged at 100,000×G for 1 hour to provide the membrane fraction pellet. […] For the rat and human membrane fractions prepared in (B) and (D), each membrane fraction was diluted with assay buffer to a concentration of 200 μg/ml and distributed in 188 μl portions into tubes. As to the bovine membrane fraction prepared in (C), the membrane fraction was diluted with assay buffer to 750 μg/ml and distributed in 188 μl portions into tubes. […] Where the rat or bovine pituitary anterior lobe membrane fraction was used, the reaction was conducted at 4° C. for 90 minutes. Where the membrane fraction of the CHO with human GnRH receptors expressed was used, the reaction was carried out at 25° C. for 60 minutes. […] After filtration, the radioactivity of ^125 I-leuprolerin remaining on the filter was measured with a γ-counter. The expression (TB-SB)/(TB-NSB)×100 (where SB=radioactivity with the compound added, TB=maximum bound radioactivity, NSB=nonspecifically bound radioactivity) was calculated to find the binding inhibition rate of each test compound.

Row | Compound | IC50 [1] [µM] | IC50 [2] [µM] | IC50 [3] [µM] | IC50 [4] [µM]
1 | COc1ccc2c(c1)CCC1(CCCCN1CCCC1(c3ccccc3)COCc3ccccc31)C2 (centres unmarked) [Example I-36, 3,4-Dihydro-6-methoxy-1'-[3-(4-phenylisochroman-4-yl)propyl]spiro[naphthalene-2(1H),2'-piperidine] hydrochloride] | 0.0051 | 0.41 | 0.76 | 11
2 | c1ccc(C2(CCCN3CCCCC34CCc3ccccc3C4)COCc3ccccc32)cc1 (centres unmarked) [Example I-35, 3,4-Dihydro-1'-[3-(4-phenylisochroman-4-yl)propyl]spiro[naphthalene-2(1H),2'-piperidine] hydrochloride] | 0.13 | 0.3 | 0.14 | 6
3 | c1ccc(CCNCCCC2(c3ccccc3)COCc3ccccc32)cc1 (stereo not drawn) [Example I-24, 4-[3-(β-Phenethylamino)propyl]-4-phenylisochroman hydrochloride] | 0.26 | 0.22 | 1.77 | 7
4 | COC(=O)c1cccc(CNCCCC2(c3ccccc3)COCc3ccccc32)c1 (stereo not drawn) [Example I-45, Methyl α-[3-(4-Phenylisochroman-4-yl)propylamino]-m-toluate hydrochloride] |  |  |  | 5
5 | COc1cc2c(cc1OC)CC1(CCCCN1CCCCC1(c3ccccc3)COCc3ccccc31)CC2 (centres unmarked) [Example I-52, 3,4-Dihydro-6,7-dimethoxy-1'-[4-(4-phenylisochroman-4-yl)butyl]spiro[naphthalene-2(1H),2'-piperidine] hydrochloride] |  |  |  | 5
